Reference: PubChem BioAssay AID248 (DTP/NCI, 2004)
“And” between values parts separate entries of the source, which are not always exact repeats. Identical values can stand only once. Toxic doses and inconclusive results are not listed. Rule as the data show it: active = T/C of 150% or more; inactive = T/C below 125%. Peptide text beside a SMILES is read from it. * marks the point of attachment. Bn = c1ccc(C*)cc1

Test system: L1210 leukemia ip in BDF1 mice, survival T/C
Assay: NCI In Vivo Anticancer Drug Screen. Data for tumor model L1210 Leukemia (intraperitoneal) in B6D2F1 (BDF1) mice
Conditions: endpoint: mean survival time, higher = longer survival
Summary of the method: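 Antitumor effect is assessed in tumor-bearing animals. Survival in the compound arm is compared with a vehicle-dosed control arm and expressed as their quotient.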

[1] = dose: 50.0 mg/kg/injection, schedule: Q01DX001 (ip), vehicle: carboxymethylcellulose (CMC)
[2] = dose: 100.0 mg/kg/injection, schedule: Q01DX009 (ip), vehicle: saline with Tween-80
[3] = dose: 100.0 mg/kg/injection, schedule: Q04DX003 (ip), vehicle: saline with Tween-80
[4] = dose: 100.0 mg/kg/injection, schedule: Q01DX009 (ip), vehicle: Klucel (hydroxypropylcellulose) (HPC)
[5] = dose: 200.0 mg/kg/injection, schedule: Q01DX009 (ip), vehicle: Klucel (hydroxypropylcellulose) (HPC)
[6] = dose: 400.0 mg/kg/injection, schedule: Q01DX009 (ip), vehicle: Klucel (hydroxypropylcellulose) (HPC)

Measured: T/C

Cc1cccc(NC(=O)N2CCN(c3ccccc3)CC2)c1
inactive: [1] 106 % of control | dose: 100.0 mg/kg/injection, schedule: Q01DX001 (ip), vehicle: carboxymethylcellulose (CMC) 101 % of control | dose: 200.0 mg/kg/injection, schedule: Q01DX001 (ip), vehicle: carboxymethylcellulose (CMC) 101 % of control | dose: 400.0 mg/kg/injection, schedule: Q01DX001 (ip), vehicle: carboxymethylcellulose (CMC) 104 % of control

CCC(=O)NC
inactive: dose: 100.0 mg/kg/injection, schedule: Q01DX001 (ip), vehicle: acetone 100 % of control | dose: 100.0 mg/kg/injection, schedule: Q01DX009 (ip), vehicle: acetone 101 % of control | dose: 200.0 mg/kg/injection, schedule: Q01DX001 (ip), vehicle: acetone 100 % of control | dose: 200.0 mg/kg/injection, schedule: Q01DX009 (ip), vehicle: acetone 97 % of control | dose: 400.0 mg/kg/injection, schedule: Q01DX001 (ip), vehicle: acetone 100 % of control | dose: 400.0 mg/kg/injection, schedule: Q01DX009 (ip), vehicle: acetone 100 % of control | dose: 555.0 mg/kg/injection, schedule: Q01DX015 (ip), vehicle: water 102 % of control | dose: 833.0 mg/kg/injection, schedule: Q01DX015 (ip), vehicle: water 115 % of control | dose: 1000.0 mg/kg/injection, schedule: Q01DX001 (ip), vehicle: water 98 % of control | dose: 1500.0 mg/kg/injection, schedule: Q01DX001 (ip), vehicle: water 104 % of control | dose: 2000.0 mg/kg/injection, schedule: Q01DX001 (ip), vehicle: water 113 % of control

Cc1cccc(Cl)c1OCC(N)=O
inactive: dose: 100.0 mg/kg/injection, schedule: Q04DX002 (ip), vehicle: saline with Tween-80 111 % of control | dose: 200.0 mg/kg/injection, schedule: Q04DX002 (ip), vehicle: saline with Tween-80 103 % of control | dose: 400.0 mg/kg/injection, schedule: Q04DX002 (ip), vehicle: saline with Tween-80 111 % of control

COC(c1ccccc1)C(Br)C(=O)c1ccccc1 (stereo unspecified)
inactive: dose: 100.0 mg/kg/injection, schedule: Q04DX003 (ip), vehicle: acetone 96 % of control | dose: 200.0 mg/kg/injection, schedule: Q04DX003 (ip), vehicle: acetone 101 % of control | dose: 400.0 mg/kg/injection, schedule: Q04DX003 (ip), vehicle: acetone 95 % of control

C(=N\Nc1nn[nH]n1)/c1ccncc1
inactive: [2] 98 % of control | [3] 95 % of control | dose: 132.0 mg/kg/injection, schedule: Q01DX009 (ip), vehicle: saline with Tween-80 102 % of control | dose: 200.0 mg/kg/injection, schedule: Q04DX003 (ip), vehicle: saline with Tween-80 96 % of control | dose: 300.0 mg/kg/injection, schedule: Q01DX009 (ip), vehicle: saline with Tween-80 97 % of control | dose: 400.0 mg/kg/injection, schedule: Q01DX009 (ip), vehicle: saline with Tween-80 100 % of control | dose: 400.0 mg/kg/injection, schedule: Q04DX003 (ip), vehicle: saline with Tween-80 90 % of control

Cc1ccc(S(=O)(=O)N2CCN(C)CC2)cc1
inactive: dose: 100.0 mg/kg/injection, schedule: Q01DX001 (ip), vehicle: saline 103 % of control | dose: 200.0 mg/kg/injection, schedule: Q01DX001 (ip), vehicle: saline 97 % of control | dose: 400.0 mg/kg/injection, schedule: Q01DX001 (ip), vehicle: saline 97 % of control

O=C(Nc1ccc(F)cc1)C(Br)C(Br)c1ccccc1 (stereo unspecified)
inactive: [4] 88 % of control | [5] 102 % of control | [6] 91 % of control

O=C(NNc1cccc(Cl)c1)C(O)C(O)C(O)C(O)CO (stereo unspecified)
inactive: dose: 50.0 mg/kg/injection, schedule: Q01DX009 (ip), vehicle: saline with Tween-80 107 % of control | [2] 98 % of control | dose: 200.0 mg/kg/injection, schedule: Q01DX009 (ip), vehicle: saline with Tween-80 115 % of control

CN(C)c1ccc(C(/C=N\O)(c2ccc(N(C)C)cc2)c2ccc(N(C)C)cc2)cc1
inactive: [4] 101 % of control | dose: 100.0 mg/kg/injection, schedule: Q04DX003 (ip), vehicle: Klucel (hydroxypropylcellulose) (HPC) 90 % of control | [5] 96 % of control | dose: 200.0 mg/kg/injection, schedule: Q04DX003 (ip), vehicle: Klucel (hydroxypropylcellulose) (HPC) 95 % of control | [6] 101 % of control | dose: 400.0 mg/kg/injection, schedule: Q04DX003 (ip), vehicle: Klucel (hydroxypropylcellulose) (HPC) 93 % of control

O=C(Nc1cc(C(F)(F)F)ccc1Cl)Nc1ccc(Cl)cc1[N+](=O)[O-]
inactive: [4] 93 % of control | [5] 87 % of control | [6] 100 % of control

COC(=O)C(CC(C)C)NC(=O)C(N)Cc1ccc(OCc2ccccc2)cc1 (stereo unspecified) (H-Tyr(Bn)-Leu-OMe; configuration not given here)
inactive: dose: 6.25 mg/kg/injection, schedule: Q01DX009 (ip), vehicle: saline with Tween-80 111 % of control | dose: 12.5 mg/kg/injection, schedule: Q01DX009 (ip), vehicle: saline with Tween-80 111 % of control | dose: 25.0 mg/kg/injection, schedule: Q01DX009 (ip), vehicle: saline with Tween-80 106 % of control and 90 % of control | dose: 25.0 mg/kg/injection, schedule: Q04DX003 (ip), vehicle: saline with Tween-80 98 % of control | dose: 50.0 mg/kg/injection, schedule: Q04DX003 (ip), vehicle: saline with Tween-80 104 % of control | [3] 96 % of control and 102 % of control

Cc1ncc(CC#N)c2c1OC(C)(C)OC2
inactive: dose: 12.5 mg/kg/injection, schedule: Q01DX001 (ip), vehicle: carboxymethylcellulose (CMC) 107 % of control | dose: 25.0 mg/kg/injection, schedule: Q01DX001 (ip), vehicle: carboxymethylcellulose (CMC) 104 % of control | [1] 101 % of control

COc1ccc(C(O)CCN2CCCCC2)cc1 (stereo unspecified)
inactive: dose: 100.0 mg/kg/injection, schedule: Q01DX001 (ip), vehicle: saline with Tween-80 112 % of control

Cc1ccccc1OCCO
inactive: dose: 100.0 mg/kg/injection, schedule: Q04DX003 (ip), vehicle: saline 101 % of control | dose: 200.0 mg/kg/injection, schedule: Q04DX003 (ip), vehicle: saline 97 % of control | dose: 400.0 mg/kg/injection, schedule: Q04DX003 (ip), vehicle: saline 106 % of control

Cln1nnc2ccccc21
inactive: dose: 100.0 mg/kg/injection, schedule: Q04DX002 (ip), vehicle: other 91 % of control | dose: 200.0 mg/kg/injection, schedule: Q04DX002 (ip), vehicle: other 106 % of control
